Experimental data from patent US20040191239A1, “Treatment and prevention of reactive oxygen metabolite-mediated cellular damage” (priority 1999, published 2004).

Legend:
ROMs = conditions: predictive example; about 10 μg/kg/day subcutaneous as in Example 3
Experimental: Histamine, a H2-receptor agonist, at approximately 10 μg/kg/day, in a pharmaceutically acceptable form is introduced by subcutaneous injection into a subject experiencing or about to experience MI. The above procedure is repeated daily for 7 days.
Histamine is administered to a patient presenting subendocardial myocardial infarction, as described in Example 3.

[1] = Histamine administration time: efficacy and side effects; conditions: administered over longer than about 30 minutes
NADPH oxidase = NADPH oxidase (Homo sapiens, UniProt P04839); conditions: substrate of the membrane-bound oxidase; cited from earlier work
[2] = system: brain tissue and cerebral vessels; conditions: cited from earlier work
[3] = cited from earlier work
HCV = conditions: cited from earlier work

NCCc1c[nH]cn1 [Histamine, histamine]
release or production of ROMs (ROMs): prevention of the release or production of ROMs | efficacy [1]: decreased or lack of efficacy

NC(=O)C1=CN([C@@H]2O[C@H](COP(=O)(O)OP(=O)(O)OC[C@H]3O[C@@H](n4cnc5c(N)ncnc54)[C@H](O)[C@@H]3O)[C@@H](O)[C@H]2O)C=CC1 [NADH]
Km (NADPH oxidase): 450 µM

NC(=O)C1=CN([C@@H]2O[C@H](COP(=O)(O)OP(=O)(O)OC[C@H]3O[C@@H](n4cnc5c(N)ncnc54)[C@H](OP(=O)(O)O)[C@@H]3O)[C@@H](O)[C@H]2O)C=CC1 [NADPH]
Km (NADPH oxidase): 45 µM

C#CCN(C)[C@H](C)Cc1ccccc1 [selegiline, L-deprenyl]
NO production ([2]; brain tissue and cerebral vessels): rapid increases in NO production | protection of the vascular endothelium ([2]; toxic effects of amyloid-beta peptide): protected the vascular endothelium | memory ([3]; 173 people, after six months): improved significantly | effect on the benefits of tacrine (Cognex) ([3]; another study, combination with tacrine): enhanced the benefits of tacrine

alpha-interferon
effectiveness in patients with HCV (HCV; chronic HCV infection): minimally effective | patients experiencing flu-like symptoms (HCV; in vivo): 60-80% | responding patients relapsing to a more progressive disease state (HCV; in vivo): approximately 70%
